Results on 10 compounds are retold here after US20200087340A1, “LIF/LIFR ANTAGONIST IN ONCOLOGY AND NONMALIGNANT DISEASES” (Evestra, Inc., priority 2018, published 2020).

In data set [1] the test system is LIF-overexpressing MCF-7 (MCF-7 LIF) human breast cancer cells. Put plainly: LIF specificity assay, cytotoxicity. Format: cell-based. To be noted: for Fold Change: cytotoxicity MCF-7 vs. MCF-7 LIF (specificity towards LIF).
Data set [2] deals with FC 1295 and imPSCc-2 organoids. As to the kind of experiment: Pancreatic cancer / stellate cell line derived organoid system. Format: cell-based, Murine. Particulars: as compared to control. On the procedure: Most solid tumors have extensive stroma that not only facilitates the tumor progression but also impedes the delivery of the chemotherapeutic agents. Due to lack of any in-vitro system, presently it is difficult to evaluate any stroma-targeted therapies. Therefore, we developed an organoid system using labeled pancreatic cancer and stellate cell lines. Murine (FC 1295 and […]-2) cell lines cultured in different combinations were grown as an organoid system using matrigel. The organoids, starting day four were treated with either gemcitabine or EC359, a novel mifepristone derived steroidal cytotoxic agent that targets tumor stroma, or both in combination. qRT-PCR analysis of activated stroma signature genes was performed on the mRNA isolated from different treatment groups. H&E, immunohistochemistry, and western blot analysis were performed to further validate our findings. […] Our novel cell line derived organoid model can be utilized for fast, and inexpensive evaluation of stroma-targeted therapies.

Data set [3] deals with human endometrial stromal cells (HESC). As to the kind of experiment: Decidualization assay, phalloidin staining of actin cytoskeleton. Format: cell-based. The protocol:
Decidualization studies: The above compounds were investigated originally for the treatment of endometriosis. The compounds were tested in a decidualization assay using human endometrial stromal fibroblast (HESC) cells. In preparation for the possibility of embryonic attachment, the stromal cells in the endometrium undergo extensive waves of proliferation, remodeling, and terminal differentiation that transforms the endometrium into an endocrine gland, called decidua. This transformation is called decidualization and it is under the control by ovarian hormones.
The level of apoptosis increases from the proliferative phase through menstrual cycle and peaks at menses. […] However if the cells are subjected to conditions that induce decidualization, stromal cells will begin to differentiate instead of undergoing apoptosis.
Rationale of this assay is described above in mechanism of action studies section. Briefly, human stromal endometrial cells were plated in the presence and absence of progesterone and allow undergoing decidualization. The cells treated with test compounds of different concentrations and stained for actin cytocketal morphology using phalloidin staining and monitored under fluorescent microscope.

The subject of data set [4] is T47D cells. Put plainly: Soft agar colony formation assay. Format: cell-based, human. Particulars: 100 nM concentration. The protocol: Colonies of cancer cells formed in soft agar in the presence and absence of the testing compounds is a standard assay to interpret in-vitro tumorigenic potential in the basal layer. Agar was prepared by mixing 1% DNA grade agar melted and cooled to 40° C. with an equal volume of (2×) Dulbecco's Modified Eagle's Medium (DMEM) to obtain 0.5% agar that was dispersed in a 6-well plate and allowed to solidify. A total of 0.6% agar was prepared in RPMI medium and mixed together with T47D cells (0.5×10^6 cells/mL) and immediately plated on the basal layer in the presence or absence of testing compounds. The cultures were incubated at 37° C. in a CO2 incubator for 2 weeks, and colonies were stained with 0.005% crystal violet and observed under a light microscope.

In data set [5] the test system is human umbilical vein endothelial cells (HUVEC). As to the kind of experiment: Matrigel in vitro HUVECs tube formation assay (angiogenesis). Format: cell-based. Particulars: 1 μM concentration, all measured time points. The protocol:
Matrigel in vitro HUVECs tube formation assay: The tube formation assay was performed using 12-well plate coated with 100 μL Matrigel basement membrane matrix (BD Bioscience) per well and polymerized at 37° C. for 30 min. Human umbilical vascular endothelial cells (HUVECs) suspended in M199 medium containing 2% FBS were plated on the Matrigel at a density of 2×10^5 cells/well. […] After 8 h, the Matrigel-induced morphological changes were photographed and the extent of capillary tube formation was evaluated by measuring the total tube length per field.

Data set [6] deals with MCF-7 cells. Put plainly: P53 / MDM2 levels in MCF-7 cells. Format: cell-based, human.
For data set [7], the system named is various cancer cells lines. As to the kind of experiment: Cytotoxicity assays in various cancer cell lines. Format: cell-based.
Data set [8] concerns Patient derived tumor (melanoma). As to the kind of experiment: Immunohistochemistry analysis of treated patient derived tumor. Particulars: 10 nM and 1 uM for 5 days. Format: cell-based, human. On the procedure: Patient derived tumor (melanoma) was treated with the compounds at 10 nM and 1 uM for 5 days in RPMI medium and harvested on day 6 using established protocol and immunohistochemistry was performed for different antibodies including p53, LIF, MDM2, pSTAT3, Ki67.

The test system of data set [9] is unmodified MCF-7 human breast cancer cells. Put plainly: LIF specificity assay, cytotoxicity. To be noted: MCF7. Format: cell-based.
The subject of data set [10] is A549 (Lung cancer). Put plainly: Short term (72 h) cytotoxicity assay. To be noted: Homo sapiens, A549, 72 h. Format: cell-based.
Data set [11] deals with U251 (Glioma). Put plainly: Short term (72 h) cytotoxicity assay. To be noted: Homo sapiens, U-251; U251, 72 h. Format: cell-based.
Data set [12] has as its system U87-MU (Glioma cells). As to the kind of experiment: Short term (72 h) cytotoxicity assay. Format: cell-based. To be noted: Glioma cell.

One may read the melting point as the temperature, or range, at which the solid turns liquid. As a reminder, the IC50 is the concentration that inhibits the measured activity by half.

As to `C#CC(F)(F)[C@]1(O)CCC2C3CCC4=CC(=O)CCC4=C3C(c3ccc(CCCCCCC)cc3)C[C@@]21C` (stereo partly drawn) [EC362, 17α-(1,1-difluoro-2-propyn-1-yl)-17β-hydroxy-11β-[4-p-(n-heptyl)phenyl]estra-4,9-dien-3-one], the “Fold Change” value in data set [1] is recorded as 2.
`C#CC(F)(F)[C@]1(O)CCC2C3CCC4=CC(=O)CCC4=C3C(c3ccc(C(C)(C)C)cc3)C[C@@]21C` (stereo partly drawn) [EC357, 17α-(1,1-difluoro-2-propyn-1-yl)-17β-hydroxy-11β-[4-p-(t-butyl)phenyl]estra-4,9-dien-3-one] displayed a melting point of 127 to 129 °C.
Regarding `C#CC(F)(F)[C@]1(O)CCC2C3CCC4=CC(=O)CCC4=C3C(c3ccc(-n4ccnc4)cc3)C[C@@]21C` (some centres unmarked) [EC351], the melting point is 175 to 178 °C.
Take `Nc1ccn([C@@H]2O[C@H](CO)[C@@H](O)C2(F)F)c(=O)n1` [Gemcitabine, reference compound]: the “relative reduction in GFP fluorescence” value in [2] worked out at 98%.
Consider `C#CC(F)(F)[C@]1(O)CCC2C3CCC4=CC(=O)CCC4=C3C(c3ccc(OC)cc3)C[C@@]21C` (stereo partly drawn) [EC356, 17α-(1,1-difluoro-2-propyn-1-yl)-17β-hydroxy-11β-[4-p-(methoxy)phenyl]estra-4,9-dien-3-one], for which, in data set [1], the “Fold Change” value was 2.
As to `C#CC(F)(F)[C@]1(O)CCC2C3CCC4=CC(=O)CCC4=C3C(c3ccc(S(=O)(=O)C4CC4)cc3)C[C@@]21C` (stereo partly drawn) [EC361, 17α-(1,1-difluoro-2-propyn-1-yl)-17β-hydroxy-11β-[4-p-(cyclopropylsulfonyl)phenyl]estra-4,9-dien-3-one], the “Fold Change” value in data set [1] is given as 20.
For the compound `C#CC(F)(F)[C@]1(O)CCC2C3CCC4=CC(=O)CCC4=C3C(c3ccc(C4CCCCC4)cc3)C[C@@]21C` (stereo partly drawn) [EC360, 17α-(1,1-difluoro-2-propyn-1-yl)-17β-hydroxy-11β-[4-p-(cyclohexyl)phenyl]estra-4,9-dien-3-one], the “Fold Change” value in data set [1] is reported as 2.
As for `C#CC(F)(F)[C@]1(O)CCC2C3CCC4=CC(=O)CCC4=C3C(c3ccc(C(C)=O)cc3)C[C@@]21C` (stereo partly drawn) [EC332, 17α-(1,1-difluoro-2-propyn-1-yl)-17β-hydroxy-11β-[4-p-(acetyl)phenyl]estra-4,9-dien-3-one], the “actin cytoskeletal disruption (phalloidin staining)” value in data set [3] is reported as “cytoskeletal disruption”. For the same compound, the colonies formed entry in [4] is “complete inhibition or no colonies were formed”. The tube formation entry in data set [5] is reported as “complete abrogation of tube formation”. Further, in [6], the “P53 levels / MDM2” value was “restore P53 levels by inhibiting MDM2”. In addition, the “cytotoxicity (IC50's) in cytotoxicity assays” value in data set [7] is listed as “low nanomolar”. In data set [8], the “apoptosis, p53, MDM2, LIF mediated STAT3 phosphorylation (immunohistochemistry)” value was “induce apoptosis and restore p53 by inhibiting MDM2 and LIF mediated STAT3 phosphorylation”.
Turning to `C#CC(F)(F)[C@]1(O)CCC2C3CCC4=CC(=O)CCC4=C3C(c3ccc(N(C)C)cc3)C[C@@]21C` (stereo partly drawn) [EC352, 17α-(1,1-difluoro-2-propyn-1-yl)-17β-hydroxy-11β-[4-p-(dimethylamino)phenyl]estra-4,9-dien-3-one], the IC50 in data set [9] is above 10000 nM; in [10] it was 45 nM; in data set [11] it was 40 nM; in data set [12], 50 nM; in [1] (Homo sapiens, MCF7, LIF-overexpressing MCF-7), above 10000 nM. The “Fold Change” value in data set [1] was 0.
For `C#CC(F)(F)[C@]1(O)CCC2C3CCC4=CC(=O)CCC4=C3C(c3ccc(C(=C)C)cc3)C[C@@]21C` (stereo partly drawn) [EC358, 17α-(1,1-difluoro-2-propyn-1-yl)-17β-hydroxy-11β-[4-p-(1-methylethenyl)phenyl]estra-4,9-dien-3-one], the “Fold Change” value in data set [1] worked out at 2.
